Literature values, collected in patent US11285148B1 (King Abdulaziz University, priority 2021, dated 2022).

Tested on: yeast isolates obtained from cases of keratitis

Question: For `CC(=O)N1CCN(c2ccc(OCC3COC(Cn4ccnc4)(c4ccc(Cl)cc4Cl)O3)cc2)CC1` (stereo not shown) [KET, Ketoconazole], which Minimum inhibitory concentration is on record?
Answer: 0.015 to 0.125 µg/mL
